Tests used:
Format in all cases: in vivo
[1] = system: redroot pigweed (Amaranthus retroflexus, AMARE); assay: Pre-emerge test, greenhouse herbicide activity screening; details: rated 14 days after application, 0 = no damage, 100 = complete death
How it was run: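 Compounds in acetone were track-sprayed at 15-1000 g ai/ha (187 l/ha) on sandy loam pots: pre-emerge one day after seeding, post-emerge at 2-3 leaf stage with 0.25% v/v non-ionic surfactant. Phytotoxicity was rated 14 days later on a 0 (no damage) to 100 (complete death) scale.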

[2] = system: barnyardgrass (Echinochloa crus-galli, ECHCG); assay: as above; details: rated 14 days after application, 0 = no damage, 100 = complete death
How it was run: (§1)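 Compounds in acetone were track-sprayed at 15–1000 g ai/ha: pre-emergence onto soil sown the previous day, then top-watered to incorporate and later bottom-watered; post-emergence onto 2–3 leaf plants with 0.25% v/v surfactant, bottom-watered only. Ratings on a 0–100 phytotoxicity scale were taken at day 14.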

[3] = system: green foxtail (Setaria viridis, SETVI); assay: as above; details: rated 14 days after application, 0 = no damage, 100 = complete death
How it was run: as §1

[4] = system: ivyleaf morningglory (Ipomoea hederacea, IPOHE); assay: as above; details: rated 14 days after application, 0 = no damage, 100 = complete death
How it was run: as §1

[5] = system: johnsongrass (Sorghum halepense, SORHA); assay: as above; details: rated 14 days after application, 0 = no damage, 100 = complete death
How it was run: as §1

[6] = system: lambsquarters (Chenopodium album, CHEAL); assay: as above; details: rated 14 days after application, 0 = no damage, 100 = complete death
How it was run: as §1

[7] = system: large crabgrass (Digitaria sanguinalis, DIGSA); assay: as above; details: rated 14 days after application, 0 = no damage, 100 = complete death
How it was run: as §1

[8] = system: sicklepod (Cassia obtusifolia, CASOB); assay: as above; details: rated 14 days after application, 0 = no damage, 100 = complete death
How it was run: as §1

[9] = system: velvetleaf (Abutilon theophrasti, ABUTH); assay: as above; details: rated 14 days after application, 0 = no damage, 100 = complete death
How it was run: as §1

[10] = system: field corn (Zea mays L., var. Dekalb 535, CORN); assay: Pre-emerge test, crop safety; details: rated 14 days after application, 0 = no damage, 100 = complete death
How it was run: (§2)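 Plants grown in 10 cm pots of sandy loam mix received acetone-dissolved compounds through a moving flat-fan nozzle. Doses ranged from 15 to 1000 g ai/ha. Pre-emerge pots were seeded one day earlier, post-emerge pots 8–21 days earlier. Fourteen days on, each pot was graded 0–100 for damage.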

[11] = system: upland rice (Oryza sp., var. Tebonnet, RICE); assay: Pre-emerge test, crop safety; details: rated 14 days after application, 0 = no damage, 100 = complete death
How it was run: as §2

[12] = system: barnyardgrass (Echinochloa crus-galli, ECHCG); assay: Post-emerge test, greenhouse herbicide activity screening; details: post-emerge, 14 days after application, rating scale 0-100
How it was run: (§3)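 Each test used a mechanized track sprayer delivering 187 l/ha of acetone solution at 15–1000 g ai/ha. Post-emerge foliage at 2–3 leaves was treated with added 0.25% v/v non-ionic surfactant and bottom-watered only. Injury was assessed on day 14, where 100 means total kill.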

[13] = system: green foxtail (Setaria viridis, SETVI); assay: as above; details: post-emerge, 14 days after application, rating scale 0-100
How it was run: as §3

[14] = system: ivyleaf morningglory (Ipomoea hederacea, IPOHE); assay: as above; details: post-emerge, 14 days after application, rating scale 0-100
How it was run: as §3

[15] = system: johnsongrass (Sorghum halepense, SORHA); assay: as above; details: post-emerge, 14 days after application, rating scale 0-100
How it was run: as §3

[16] = system: large crabgrass (Digitaria sanguinalis, DIGSA); assay: as above; details: post-emerge, 14 days after application, rating scale 0-100
How it was run: as §3

[17] = system: redroot pigweed (Amaranthus retroflexus, AMARE); assay: as above; details: post-emerge, 14 days after application, rating scale 0-100
How it was run: as §3

[18] = system: sicklepod (Cassia obtusifolia, CASOB); assay: as above; details: post-emerge, 14 days after application, rating scale 0-100
How it was run: as §3

[19] = system: velvetleaf (Abutilon theophrasti, ABUTH); assay: as above; details: post-emerge, 14 days after application, rating scale 0-100
How it was run: as §3

[20] = system: field corn (Zea mays L., var. Dekalb 535, CORN); assay: Post-emerge test, crop safety; details: post-emerge, 14 days after application, rating scale 0-100
How it was run: (§4)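 Rating: 0–100 visual injury, 14 DAA. Application: acetone, 187 l/ha, 15–1000 g ai/ha, flat-fan track sprayer with nozzle 40–45 cm above soil or canopy. Post-emerge runs used 0.25% v/v surfactant on 2–3 leaf plants.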

[21] = system: upland rice (Oryza sp., var. Tebonnet, RICE); assay: Post-emerge test, crop safety; details: post-emerge, 14 days after application, rating scale 0-100
How it was run: as §4

COc1c(Cl)cc(F)c(-n2c(=O)cc(C(F)(F)F)n(C)c2=O)c1NC(=O)COC(C)=O [2-117]
20: phytotoxicity rating CORN ([20]; 250 g ai/ha)
10: Pre-emerge Herbicidal Activity, phytotoxicity rating (0-100), ECHCG ([2]; 63 g ai/ha) | Pre-emerge Herbicidal Activity, phytotoxicity rating (0-100), SORHA ([5]; 63 g ai/ha) | Pre-emerge phytotoxicity rating (0-100), crop damage, CORN ([10]; 63 g ai/ha) | phytotoxicity rating AMARE ([17]; 63 g ai/ha) | phytotoxicity rating RICE ([21]; 63 g ai/ha)
30: Pre-emerge Herbicidal Activity, phytotoxicity rating (0-100), SETVI ([3]; 63 g ai/ha) | Pre-emerge Herbicidal Activity, phytotoxicity rating (0-100), DIGSA ([7]; 63 g ai/ha) | Pre-emerge phytotoxicity rating (0-100), crop damage, RICE ([11]; 63 g ai/ha)
80: Pre-emerge Herbicidal Activity, phytotoxicity rating (0-100), CASOB ([8]; 63 g ai/ha) | phytotoxicity rating ABUTH ([19]; 63 g ai/ha)
90: Pre-emerge Herbicidal Activity, phytotoxicity rating (0-100), AMARE ([1]; 63 g ai/ha) | Pre-emerge Herbicidal Activity, phytotoxicity rating (0-100), DIGSA ([7]; 250 g ai/ha) | Pre-emerge phytotoxicity rating (0-100), crop damage, RICE ([11]; 250 g ai/ha) | phytotoxicity rating IPOHE ([14]; 63 g ai/ha)
5: phytotoxicity rating CORN ([20]; 63 g ai/ha)
60: Pre-emerge Herbicidal Activity, phytotoxicity rating (0-100), SORHA ([5]; 250 g ai/ha)
95: phytotoxicity rating CASOB ([18]; 250 g ai/ha)
70: Pre-emerge Herbicidal Activity, phytotoxicity rating (0-100), ECHCG ([2]; 250 g ai/ha) | phytotoxicity rating AMARE ([17]; 250 g ai/ha)
35: Pre-emerge phytotoxicity rating (0-100), crop damage, CORN ([10]; 250 g ai/ha)
40: phytotoxicity rating CASOB ([18]; 63 g ai/ha) | phytotoxicity rating RICE ([21]; 250 g ai/ha)
0: phytotoxicity rating ECHCG ([12]; 63 g ai/ha) | phytotoxicity rating ECHCG ([12]; 250 g ai/ha) | phytotoxicity rating SETVI ([13]; 63 g ai/ha) | phytotoxicity rating SETVI ([13]; 250 g ai/ha) | phytotoxicity rating SORHA ([15]; 63 g ai/ha) | phytotoxicity rating SORHA ([15]; 250 g ai/ha) | phytotoxicity rating DIGSA ([16]; 63 g ai/ha) | phytotoxicity rating DIGSA ([16]; 250 g ai/ha)
100: Pre-emerge Herbicidal Activity, phytotoxicity rating (0-100), AMARE ([1]; 250 g ai/ha) | Pre-emerge Herbicidal Activity, phytotoxicity rating (0-100), SETVI ([3]; 250 g ai/ha) | Pre-emerge Herbicidal Activity, phytotoxicity rating (0-100), IPOHE ([4]; 63 g ai/ha) | Pre-emerge Herbicidal Activity, phytotoxicity rating (0-100), IPOHE ([4]; 250 g ai/ha) | Pre-emerge Herbicidal Activity, phytotoxicity rating (0-100), CHEAL ([6]; 63 g ai/ha) | Pre-emerge Herbicidal Activity, phytotoxicity rating (0-100), CHEAL ([6]; 250 g ai/ha) | Pre-emerge Herbicidal Activity, phytotoxicity rating (0-100), CASOB ([8]; 250 g ai/ha) | Pre-emerge Herbicidal Activity, phytotoxicity rating (0-100), ABUTH ([9]; 63 g ai/ha) | Pre-emerge Herbicidal Activity, phytotoxicity rating (0-100), ABUTH ([9]; 250 g ai/ha) | phytotoxicity rating IPOHE ([14]; 250 g ai/ha) | phytotoxicity rating ABUTH ([19]; 250 g ai/ha)

Source: US6355799B1, “Substituted benzene compounds, process for their preparation, and herbicidal and defoliant compositions containing them” (ISK Americas Incorporated, priority 1997, dated 2002)
